Among the data in PubChem BioAssay AID330 (DTP/NCI, 2004) are T/C values, retold here.

The test system of this experiment is P388 leukemia ip, CD2F1 mice, survival T/C. As to the kind of experiment: NCI In Vivo Anticancer Drug Screen. Data for tumor model P388 Leukemia (intraperitoneal) in CD2F1 (CDF1) mice. The settings on record: endpoint: median survival time, higher = longer survival. In short, it runs like this: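 Mice carrying the transplanted tumor received test compound or vehicle. Survival was recorded in each group, and the value is the treated-group measurement divided by that of the vehicle-treated control group.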

[1] abbreviates: dose: 60.0 mg/kg/injection, schedule: Q01DX005 (ip), vehicle: saline with Tween-80.
Where [2] appears, read: dose: 120.0 mg/kg/injection, schedule: Q01DX005 (ip), vehicle: saline with Tween-80.
[3] abbreviates: dose: 240.0 mg/kg/injection, schedule: Q01DX005 (ip), vehicle: saline with Tween-80.
Where [4] appears, read: dose: 25.0 mg/kg/injection, schedule: Q01DX005 (ip), vehicle: Klucel (hydroxypropylcellulose) (HPC).
Where [5] appears, read: dose: 50.0 mg/kg/injection, schedule: Q01DX005 (ip), vehicle: Klucel (hydroxypropylcellulose) (HPC).
The mark [6] stands for this setting: dose: 100.0 mg/kg/injection, schedule: Q01DX005 (ip), vehicle: Klucel (hydroxypropylcellulose) (HPC).
The mark [7] stands for this setting: dose: 200.0 mg/kg/injection, schedule: Q01DX005 (ip), vehicle: Klucel (hydroxypropylcellulose) (HPC).
The mark [8] stands for this setting: dose: 12.5 mg/kg/injection, schedule: Q01DX009 (ip), vehicle: saline.
Setting [9] is: dose: 25.0 mg/kg/injection, schedule: Q01DX009 (ip), vehicle: saline.
[10] abbreviates: dose: 100.0 mg/kg/injection, schedule: Q01DX009 (ip), vehicle: saline.
Where [11] appears, read: dose: 60.0 mg/kg/injection, schedule: Q01DX005 (ip), vehicle: saline.
Setting [12] is: dose: 120.0 mg/kg/injection, schedule: Q01DX005 (ip), vehicle: saline.
Where [13] appears, read: dose: 240.0 mg/kg/injection, schedule: Q01DX005 (ip), vehicle: saline.
[14] abbreviates: dose: 6.25 mg/kg/injection, schedule: Q01DX009 (ip), vehicle: saline.
Setting [15] is: dose: 3.12 mg/kg/injection, schedule: Q01DX005 (ip), vehicle: Klucel (hydroxypropylcellulose) (HPC).
The mark [16] stands for this setting: dose: 6.25 mg/kg/injection, schedule: Q01DX005 (ip), vehicle: Klucel (hydroxypropylcellulose) (HPC).
Setting [17] is: dose: 12.5 mg/kg/injection, schedule: Q01DX005 (ip), vehicle: Klucel (hydroxypropylcellulose) (HPC).

Several values for one entry are separate records, joined by “and”; a condition that tells them apart may be missing. Identical values can stand only once. Inconclusive results and toxic doses are left out.

For the compound `CC(C)CCCCCCCCCCCCC(=O)NCC(=O)NC1C(CO)OC(Nc2ncnc3nc[nH]c23)C(O)C1O` (stereo unspecified), the T/C is 114 % of control (dose: 0.13 mg/kg/injection, schedule: Q01DX009 (ip), vehicle: other); 161 % of control (dose: 0.5 mg/kg/injection, schedule: Q01DX009 (ip), vehicle: other); 105 % of control (dose: 1.0 mg/kg/injection, schedule: Q01DX009 (ip), vehicle: other); 89 % of control (dose: 2.0 mg/kg/injection, schedule: Q01DX009 (ip), vehicle: other).
As to `O=C(Nc1cccnc1)c1cccc([N+](=O)[O-])c1`, the T/C was 100 % of control under setting [1], 98 % of control under setting [2] and 97 % of control under setting [3].
Regarding `CCOC(=O)CNC(=O)Oc1ccc(Cl)cn1`, the T/C by setting is: (dose: 50.0 mg/kg/injection, schedule: Q01DX009 (ip), vehicle: Klucel (hydroxypropylcellulose) (HPC)) 102 % of control; (dose: 100.0 mg/kg/injection, schedule: Q01DX009 (ip), vehicle: Klucel (hydroxypropylcellulose) (HPC)) 97 % of control; (dose: 200.0 mg/kg/injection, schedule: Q01DX009 (ip), vehicle: Klucel (hydroxypropylcellulose) (HPC)) 102 % of control.
Consider `CC(=O)OC1NC(=O)C(OC(C)=O)NC1=O` (stereo unspecified), for which the T/C under setting [4] was 100 % of control; the T/C under setting [5] was 98 % of control and 102 % of control (2×); the T/C under setting [6] is 101 % of control (2×) and 120 % of control; the T/C under setting [7] is 102 % of control and 107 % of control and 110 % of control.
Turning to `Cc1cc(-c2ccc(N=Nc3ccc4c(S(=O)(=O)O)cc(S(=O)(=O)O)c(N)c4c3O)c(C)c2)ccc1N=Nc1ccc2c(S(=O)(=O)O)cc(S(=O)(=O)O)c(N)c2c1O`, the T/C reads like this: under setting [8], 116 % of control; under setting [9], 107 % of control.
As for `CC1CC(O)C(CN(C)C)C(C)(C)C1` (stereo unspecified), the T/C by setting is: (dose: 50.0 mg/kg/injection, schedule: Q01DX005 (ip), vehicle: saline with Tween-80) 106 % of control; (dose: 100.0 mg/kg/injection, schedule: Q01DX005 (ip), vehicle: saline with Tween-80) 100 % of control.
Regarding `CN1C2CCC1C1N=NN(c3cc(C(F)(F)F)cc(C(F)(F)F)c3)C1(N1CCOCC1)C2` (stereo unspecified), the T/C (dose: 50.0 mg/kg/injection, schedule: Q01DX005 (ip), vehicle: Klucel + Tween-80) was 102 % of control and the T/C (dose: 100.0 mg/kg/injection, schedule: Q01DX005 (ip), vehicle: Klucel + Tween-80) is 97 % of control.
With `Cc1nc2[nH]c(=S)[nH]c(=O)c2[nH]c1=O`, the T/C under setting [8] is 97 % of control; the T/C under setting [9] was 114 % of control; the T/C (dose: 50.0 mg/kg/injection, schedule: Q01DX009 (ip), vehicle: saline) is 120 % of control; the T/C under setting [10] is 120 % of control.
Consider `CN(C)CCSCC(=O)Nc1ccccc1Cl`, for which the T/C is 103 % of control under setting [11], 106 % of control under setting [12] and 106 % of control under setting [13].
In the case of `C[N+](C)(C)CCC(=O)c1ccc(Cl)c(Cl)c1`, the T/C (dose: 3.13 mg/kg/injection, schedule: Q01DX009 (ip), vehicle: saline) was 108 % of control; the T/C under setting [14] is 112 % of control; the T/C under setting [8] is 108 % of control.
As for `Oc1cc2c(cc1O)CN1CCc3cc(O)c(O)cc3C1C2` (stereo unspecified), the T/C under setting [10] is 114 % of control; the T/C (dose: 200.0 mg/kg/injection, schedule: Q01DX009 (ip), vehicle: saline) is 109 % of control; the T/C (dose: 400.0 mg/kg/injection, schedule: Q01DX009 (ip), vehicle: saline) is 101 % of control.
As to `COc1ccc(-c2cc(-c3cc(-c4ccc(OC)cc4)on3)no2)cc1`, the T/C is, setting by setting: under setting [11], 100 % of control; under setting [12], 92 % of control; under setting [13], 97 % of control.
For the compound `CNC(=O)OCC1(OC(=O)NC)OC(COC(=O)NC)(OC(=O)NC)C(OC(=O)NC)C1OC(=O)NC` (stereo unspecified), the T/C (dose: 50.0 mg/kg/injection, schedule: Q01DX005 (ip), vehicle: saline) is 104 % of control; the T/C (dose: 100.0 mg/kg/injection, schedule: Q01DX005 (ip), vehicle: saline) was 91 % of control; the T/C (dose: 200.0 mg/kg/injection, schedule: Q01DX005 (ip), vehicle: saline) is 101 % of control.
For `COc1cc2c[n+](C)c3c4cc(OC)c(OCc5ccccc5)cc4c(OCc4ccccc4)cc3c2cc1OC`, the T/C under setting [15] is 100 % of control, the T/C under setting [16] was 100 % of control and the T/C under setting [17] was 98 % of control.
Take `C/C(=N/O)[c-]1[c-][c-][c-][c-]1.[Fe].[c-]1[c-][c-][cH-][c-]1`: the T/C was 120 % of control (dose: 25.0 mg/kg/injection, schedule: Q01DX009 (ip), vehicle: saline with Tween-80); 115 % of control (dose: 50.0 mg/kg/injection, schedule: Q01DX009 (ip), vehicle: saline with Tween-80); 100 % of control (dose: 100.0 mg/kg/injection, schedule: Q01DX009 (ip), vehicle: saline with Tween-80).
For `N#CC(=C1C=CC(=NO)C=C1)c1ccccc1`, for the setting “dose: 200.0 mg/kg/injection, schedule: Q01DX009 (ip), vehicle: saline with Tween-80”, the T/C was 115 % of control.
With `Cn1c(/C=N/NC2=NCCCN2)cnc1[N+](=O)[O-]`, the T/C was 97 % of control (dose: 100.0 mg/kg/injection, schedule: Q04DX002 (ip), vehicle: saline with Tween-80); 104 % of control (dose: 200.0 mg/kg/injection, schedule: Q04DX002 (ip), vehicle: saline with Tween-80); 107 % of control (dose: 400.0 mg/kg/injection, schedule: Q04DX002 (ip), vehicle: saline with Tween-80).
Take `COC(=O)c1nnn(-c2ccccc2C(C)C)c1C(=O)c1ccccc1`: the T/C by setting is: under setting [1], 94 % of control; under setting [2], 109 % of control; under setting [3], 104 % of control.
As to `COc1nc(N)nc2c1ncn2C1CC(O)C(CO)O1` (stereo unspecified), the T/C under setting [5] was 100 % of control, the T/C under setting [6] was 100 % of control and the T/C under setting [7] was 112 % of control.
As to `c1ccc(C2=NC3CCCC[C@H]3O2)cc1` (stereo partly specified), the T/C runs as follows: (dose: 30.0 mg/kg/injection, schedule: Q01DX005 (ip), vehicle: saline with Tween-80) 108 % of control; under setting [1], 101 % of control and 96 % of control; under setting [2], 105 % of control; under setting [3], 100 % of control.
As for `C=C(CN(C)C)C(=O)c1ccc(OC)cc1`, the T/C was 100 % of control (dose: 0.93 mg/kg/injection, schedule: Q01DX005 (ip), vehicle: saline); 113 % of control (dose: 1.87 mg/kg/injection, schedule: Q01DX005 (ip), vehicle: saline); 99 % of control (dose: 3.75 mg/kg/injection, schedule: Q01DX005 (ip), vehicle: saline).
As for `CC1(C)CCC2(C(=O)OC3OC(CO)C(O)C(O)C3O)CCC3(C)C(=CCC4C5(C)CCC(OC6OC(CO)C(O)C(O)C6O)C(C)(C)C5CCC43C)C2C1` (stereo unspecified), the T/C was 98 % of control under setting [15]; 104 % of control under setting [16]; 104 % of control under setting [17]; 95 % of control under setting [4]; 102 % of control under setting [5].
For `CCOC(=O)c1cc2ccccc2c(-c2ccccc2)c1C(=O)OCC`, the T/C runs as follows: (dose: 100.0 mg/kg/injection, schedule: Q01DX001 (ip), vehicle: saline with Tween-80) 97 % of control; (dose: 200.0 mg/kg/injection, schedule: Q01DX001 (ip), vehicle: saline with Tween-80) 96 % of control; (dose: 400.0 mg/kg/injection, schedule: Q01DX001 (ip), vehicle: saline with Tween-80) 90 % of control.
Regarding `CCCCCCCCCC[N+]1(CC)CCCCC1`, the T/C reads like this: (dose: 3.12 mg/kg/injection, schedule: Q01DX009 (ip), vehicle: saline) 119 % of control; under setting [14], 121 % of control; under setting [8], 105 % of control.
Regarding `NC(=O)CCn1cnc2c(N)ncnc21`, the T/C (dose: 25.0 mg/kg/injection, schedule: Q04DX003 (ip), vehicle: saline) is 100 % of control; the T/C (dose: 50.0 mg/kg/injection, schedule: Q04DX003 (ip), vehicle: saline) is 100 % of control; the T/C (dose: 100.0 mg/kg/injection, schedule: Q04DX003 (ip), vehicle: saline) is 99 % of control.
